Usually fraction remaining stands for the share of the starting amount still present when the sample was taken.

Peptide text beside a SMILES is read from it.

One data set has as its system 3T3-L1 Adipocytes. Description: Free fatty acid levels in cultured mouse 3T3-L1 adipocytes, isoproterenol stimulated (Example 2). Particulars: test peptides 25 μM; isoproterenol 1 nM. In kind it is cell-based. The protocol: Mouse 3T3-L1 cells were seeded at a density between 1,000-20,000 cells per well on 96-well, 48-well, or 24-well plates in Pre-adipocyte Medium (Zen-Bio, Durham, N.C.) and grown to confluence at 37° C. in a humidified atmosphere of 5% CO2/95% air. Two days after confluence, cells were placed in Adipocyte Differentiation Medium (Zen-Bio, Durham, N.C.) and cultured for three additional days at 37° C. in a humidified atmosphere of 5% CO2/95% air. The culture media was then replaced with Adipocyte Maintenance Medium (Zen-Bio) and the cells were maintained for an additional 9-14 days at 37° C. in a humidified atmosphere of 5% CO2/95% air with partial medium replacement every other day. Following 12-17 days of differentiation, test peptides were added at a final concentration of 25 μM and incubated for 18-20 hours in Adipocyte Maintenance Medium at 37° C. in a humidified atmosphere of 5% CO2/95%. After 18-20 hours, the media was exchanged with fresh Adipocyte Maintenance Medium containing test peptides and incubated for 1 h at 37° C. in a humidified atmosphere of 5% CO2/95%. After 1 h media was exchanged with Assay Buffer (Zen-Bio) containing isoproterenol (1 nM) (added to all samples except untreated controls) and the test peptides. Cells were incubated for a further 3 hours at 37° C. in a humidified atmosphere of 5% CO2/95%. Free fatty acid concentrations in the media were determined using a Free Fatty Acid Assay Kit (Zen-Bio) according to the manufacturer's instructions using a plate reader (540 nm).
Absorbance values were corrected for untreated background and expressed relative to isoproterenol treated cells. Treatment with isoproterenol (1 nM) alone was used as the free fatty acid level stimulatory control. The relative standard deviation of the isoproterenol control was <10%. […] Free fatty acid levels for insulin (100 nM) treatment were <5% of the isoproterenol control value.

The nature of data set [1]: Stability in mouse plasma, peptides 10 uM (Example 15). The class given is in vitro ADME. Particulars: mouse plasma 37° C., peptide 10 uM; for remaining at 0.25 h, 10 uM / remaining at 0.5 h, 10 uM / remaining at 1 h, 10 uM / remaining at 2 h, 10 uM / remaining at 3 h, 10 uM: pooled mouse plasma; for remaining at 0.25 h, 10 uM: 15 min, read-out: % Remaining at Each Time Point: 15 min; for remaining at 0.5 h, 10 uM: 30 min, read-out: % Remaining at Each Time Point: 30 min; for remaining at 1 h, 10 uM: 60 min, read-out: % Remaining at Each Time Point: 60 min; for remaining at 2 h, 10 uM: 120 min, read-out: % Remaining at Each Time Point: 120 min; for remaining at 3 h, 10 uM: 180 min, read-out: % Remaining at Each Time Point: 180 min. The method, then:
Peptides (10 uM) were incubated in pooled mouse plasma at 37° C. and samples were removed and immediately analyzed for the concentration of intact peptide by LC/MS/MS over the course of 3 hours. The percent of peptide remaining in plasma at each time point was calculated relative to the initial peak area (Table 13).

For `CC[C@H](C)[C@H](NC(=O)[C@H](Cc1ccc(O)cc1)NC(=O)[C@@H](C)NC(=O)[C@H](CCSC)NC(=O)[C@H](CCC(=O)O)NC(=O)[C@H](CCC(N)=O)NC(=O)[C@H](Cc1c[nH]c2ccccc12)NC(=O)[C@H](CCCNC(=N)N)NC(=O)[C@H](CCSC)NC(C)=O)C(=O)N[C@@H](Cc1ccccc1)C(=O)N[C@@H](Cc1ccc(O)cc1)C(=O)N1CCC[C@H]1C(=O)N[C@@H](CCCNC(=N)N)C(=O)N[C@@H](CCCCN)C(=O)N[C@@H](CC(C)C)C(=O)N[C@@H](CCCNC(=N)N)C(N)=O` [compound 88] (HELM PEPTIDE1{[ac].M.R.W.Q.E.M.[dA].Y.I.F.Y.P.R.K.L.R.[am]}$$$$V2.0), the “Free Fatty Acid Levels in 3T3-L1 Adipocytes Expressed as a Percent of Isoproterenol Control: Percent of Control Value” in the data set on 3T3-L1 Adipocytes worked out at 75.1%.
On the same count and under the same terms, the same measure for `CC[C@H](C)[C@H](NC(=O)[C@H](Cc1ccc(O)cc1)NC(=O)CNC(=O)[C@H](CCSC)NC(=O)[C@H](CCC(=O)O)NC(=O)[C@H](CCC(N)=O)NC(=O)[C@H](Cc1c[nH]c2ccccc12)NC(=O)C(C)(C)NC(=O)[C@@H](N)CCSC)C(=O)N[C@@H](Cc1ccccc1)C(=O)N[C@@H](Cc1ccc(O)cc1)C(=O)N1CCC[C@H]1C(=O)N[C@@H](CCCNC(=N)N)C(=O)N[C@@H](CCCCN)C(=O)N[C@@H](CC(C)C)C(=O)N[C@@H](CCCNC(=N)N)C(=O)O` [compound 118] (HELM PEPTIDE1{M.[Aib].W.Q.E.M.G.Y.I.F.Y.P.R.K.L.R}$$$$V2.0): 84.6%.
Still for that read-out and setting: with `CC[C@H](C)[C@H](NC(=O)[C@H](Cc1ccc(O)cc1)NC(=O)CNC(=O)[C@H](CCSC)NC(=O)[C@H](CCC(=O)O)NC(=O)[C@H](CCC(N)=O)NC(=O)[C@H](Cc1c[nH]c2ccccc12)NC(=O)C(C)(C)NC(=O)[C@@H](N)CCSC)C(=O)N[C@@H](Cc1ccccc1)C(=O)N[C@@H](Cc1ccc(O)cc1)C(=O)N1CCC[C@H]1C(=O)N[C@@H](CCCNC(=N)N)C(=O)N[C@@H](CCCCN)C(=O)N[C@@H](CC(C)C)C(=O)N[C@@H](CCCNC(=N)N)C(N)=O` [compound 119] (HELM PEPTIDE1{M.[Aib].W.Q.E.M.G.Y.I.F.Y.P.R.K.L.R.[am]}$$$$V2.0) the figure was 89.2%; with `CC[C@H](C)[C@H](NC(=O)[C@H](Cc1ccc(O)cc1)NC(=O)CNC(=O)[C@H](CCSC)NC(=O)[C@H](CCC(=O)O)NC(=O)[C@H](CCC(N)=O)NC(=O)[C@H](Cc1c[nH]c2ccccc12)NC(=O)C(C)(C)NC(=O)[C@H](CCSC)NC(C)=O)C(=O)N[C@@H](Cc1ccccc1)C(=O)N[C@@H](Cc1ccc(O)cc1)C(=O)N1CCC[C@H]1C(=O)N[C@@H](CCCNC(=N)N)C(=O)N[C@@H](CCCCN)C(=O)N[C@@H](CC(C)C)C(=O)N[C@@H](CCCNC(=N)N)C(=O)O` [compound 120] (HELM PEPTIDE1{[ac].M.[Aib].W.Q.E.M.G.Y.I.F.Y.P.R.K.L.R}$$$$V2.0), 86.0%; with `CC[C@H](C)[C@H](NC(=O)[C@H](Cc1ccc(O)cc1)NC(=O)CNC(=O)[C@H](CCSC)NC(=O)[C@H](CCC(=O)O)NC(=O)[C@H](CCC(N)=O)NC(=O)[C@H](Cc1c[nH]c2ccccc12)NC(=O)C(C)(C)NC(=O)[C@H](CCSC)NC(C)=O)C(=O)N[C@@H](Cc1ccccc1)C(=O)N[C@@H](Cc1ccc(O)cc1)C(=O)N1CCC[C@H]1C(=O)N[C@@H](CCCNC(=N)N)C(=O)N[C@@H](CCCCN)C(=O)N[C@@H](CC(C)C)C(=O)N[C@@H](CCCNC(=N)N)C(N)=O` [compound 121] (HELM PEPTIDE1{[ac].M.[Aib].W.Q.E.M.G.Y.I.F.Y.P.R.K.L.R.[am]}$$$$V2.0), 89.8%.
The same measure, in the same setting: the same measure for `CC[C@H](C)[C@H](NC(=O)[C@H](Cc1ccc(O)cc1)NC(=O)CNC(=O)[C@H](CCSC)NC(=O)[C@H](CCC(=O)O)NC(=O)[C@H](CCC(N)=O)NC(=O)[C@H](Cc1c[nH]c2ccccc12)NC(=O)[C@H](CCCNC(=N)N)NC(=O)[C@@H](C)N)C(=O)N[C@@H](Cc1ccccc1)C(=O)N[C@@H](Cc1ccc(O)cc1)C(=O)N1CCC[C@H]1C(=O)N[C@@H](CCCNC(=N)N)C(=O)N[C@@H](CCCCN)C(=O)N[C@@H](CC(C)C)C(=O)N[C@@H](CCCNC(=N)N)C(=O)O` [compound 136] (HELM PEPTIDE1{[dA].R.W.Q.E.M.G.Y.I.F.Y.P.R.K.L.R}$$$$V2.0): 44.2%; for `CC[C@H](C)[C@H](NC(=O)[C@H](Cc1ccc(O)cc1)NC(=O)CNC(=O)[C@H](CCSC)NC(=O)[C@H](CCC(=O)O)NC(=O)[C@H](CCC(N)=O)NC(=O)[C@H](Cc1c[nH]c2ccccc12)NC(=O)[C@@H](C)NC(=O)[C@@H](N)CCSC)C(=O)N[C@@H](Cc1ccccc1)C(=O)N[C@@H](Cc1ccc(O)cc1)C(=O)N1CCC[C@H]1C(=O)N[C@@H](CCCNC(=N)N)C(=O)N[C@@H](CCCCN)C(=O)N[C@@H](CC(C)C)C(=O)N[C@@H](CCCNC(=N)N)C(=O)O` [compound 137] (HELM PEPTIDE1{M.[dA].W.Q.E.M.G.Y.I.F.Y.P.R.K.L.R}$$$$V2.0): 91.4%; for `CC[C@H](C)[C@H](NC(=O)[C@H](Cc1ccc(O)cc1)NC(=O)CNC(=O)[C@H](CCSC)NC(=O)[C@H](CCC(=O)O)NC(=O)[C@H](CCC(N)=O)NC(=O)[C@@H](C)NC(=O)[C@H](CCCNC(=N)N)NC(=O)[C@@H](N)CCSC)C(=O)N[C@@H](Cc1ccccc1)C(=O)N[C@@H](Cc1ccc(O)cc1)C(=O)N1CCC[C@H]1C(=O)N[C@@H](CCCNC(=N)N)C(=O)N[C@@H](CCCCN)C(=O)N[C@@H](CC(C)C)C(=O)N[C@@H](CCCNC(=N)N)C(=O)O` [compound 138] (HELM PEPTIDE1{M.R.[dA].Q.E.M.G.Y.I.F.Y.P.R.K.L.R}$$$$V2.0): 71.5%.
With H-RWQEENYIAEPR-OH [compound 261], in data set [1], the “% Remaining at Each Time Point: 0 min” value is listed as 100%; the amount remaining at 0.25 h, 10 uM stood at 85%; the amount remaining at 0.5 h, 10 uM is 73.4%; the amount remaining at 1 h, 10 uM was 69.3%. Besides, in data set [1], the fraction remaining at 2 h, 10 uM is 68.1% and the amount remaining at 3 h, 10 uM was found to be 73.7%.
On to H-RWQEENYIFEPR-OH [compound 259], for which, in data set [1], the “% Remaining at Each Time Point: 0 min” value was found to be 100%; the amount remaining at 0.25 h, 10 uM turned out to be 82.2%; the amount remaining at 0.5 h, 10 uM was determined as 65.2%; the amount remaining at 1 h, 10 uM came to 42.2%. Also, in data set [1], the amount remaining at 2 h, 10 uM stood at 32.8% and the share remaining at 3 h, 10 uM was determined as 34.8%.
Turning to H-RWQEENYIFYPR-OH [compound 258], in data set [1], the “% Remaining at Each Time Point: 0 min” value amounted to 100%; the fraction remaining at 0.25 h, 10 uM came out at 63.2%; the amount remaining at 0.5 h, 10 uM came out at 53.5%; the share remaining at 1 h, 10 uM worked out at 36.3%. For the same molecule, in data set [1], the amount remaining at 2 h, 10 uM is 30.3% and the amount remaining at 3 h, 10 uM is 21.7%.
With H-RWQEEQYIFYPR-OH [compound 263], in data set [1], the “% Remaining at Each Time Point: 0 min” value was determined as 100%; the fraction remaining at 0.25 h, 10 uM turned out to be 80.7%; the fraction remaining at 0.5 h, 10 uM was determined as 68.6%; the fraction remaining at 1 h, 10 uM was determined as 46.9%. In addition, in data set [1], the amount remaining at 2 h, 10 uM came to 40.5% and the amount remaining at 3 h, 10 uM stood at 30.8%.
Consider H-RWQEMQYIAYPR-OH [compound 255], for which, in data set [1], the “% Remaining at Each Time Point: 0 min” value was found to be 100%; the amount remaining at 0.25 h, 10 uM is 78.3%; the fraction remaining at 0.5 h, 10 uM was found to be 62.6%; the share remaining at 1 h, 10 uM is 40.9%. Further, in data set [1], the share remaining at 2 h, 10 uM worked out at 28.7% and the fraction remaining at 3 h, 10 uM amounted to 19.6%.
Consider H-RWQEMQYIFEPR-OH [compound 254], for which, in data set [1], the “% Remaining at Each Time Point: 0 min” value stood at 100%; the share remaining at 0.25 h, 10 uM was determined as 52.4%; the share remaining at 0.5 h, 10 uM worked out at 33.3%; the share remaining at 1 h, 10 uM stood at 30.3%. In data set [1], the amount remaining at 2 h, 10 uM was 24% and the share remaining at 3 h, 10 uM is 18.1%.

The record behind these values is US11753445B2, “Therapeutic peptides” (COHBAR, INC., priority 2016, dated 2023).
